In ChEMBL document CHEMBL1201862, “PubChem BioAssay data set” (2004):
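Each compound was tested at five concentrations against cells in 96-well plates for 48 hours. GI50 marks 50% less growth.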 Active and inactive are the calls of the source. Rule as the data show it: active = GI50 up to about 1.1 µM and inactive = higher.

Key:
Test in all cases: NCI tumour cell line growth inhibition, 48 h
[1] = system: COLO 205
[2] = system: DU-145
[3] = system: HCC 2998
[4] = system: HCT-116
[5] = system: HCT-15
[6] = system: HT-29
[7] = system: KM12
[8] = system: MCF7
[9] = system: MOLT-4
[10] = system: NCI-H460
[11] = system: NCI/ADR-RES
[12] = system: OVCAR-4
[13] = system: PC-3
[14] = system: SF-295
[15] = system: SK-MEL-5
[16] = system: T47D
[17] = system: UACC-257
[18] = system: UACC-62
[19] = system: HL-60
[20] = system: Malme-3M

SMILES	GI50 [1]	GI50 [2]	GI50 [3]	GI50 [4]	GI50 [5]	GI50 [6]	GI50 [7]	GI50 [8]	GI50 [9]	GI50 [10]	GI50 [11]	GI50 [12]	GI50 [13]	GI50 [14]	GI50 [15]	GI50 [16]	GI50 [17]	GI50 [18]	GI50 [19]	GI50 [20]
O=S(=O)(O)c1cc(Cl)c(O)c2ncc(Cl)cc12	> 100 µM (inactive)	> 100 µM (inactive)	> 100 µM (inactive)	36.5 µM (inactive)	41.7 µM	38.5 µM (inactive)	> 100 µM (inactive)	51.8 µM (inactive)	15.7 µM (inactive)	55.5 µM (inactive)	32.8 µM (inactive)	42.7 µM (inactive)	> 100 µM (inactive)	> 100 µM (inactive)	84.3 µM (inactive)	> 100 µM (inactive)	> 100 µM (inactive)	50.1 µM (inactive)		
Cc1cc(C)n(CN(Cn2nc(C)cc2C)c2ccccc2)n1	14.3 µM (inactive)	30.3 µM (inactive)		19.8 µM (inactive)	19.6 µM	17.6 µM (inactive)	16 µM (inactive)	23.1 µM (inactive)	10.5 µM (inactive)	35.1 µM (inactive)	20.8 µM (inactive)	20.3 µM (inactive)	27.8 µM (inactive)	57.9 µM (inactive)	20.4 µM (inactive)	23.7 µM (inactive)	22.3 µM (inactive)	10.6 µM (inactive)	2.99 µM (inactive)	22.8 µM (inactive)
COc1cc2nc(-c3cccs3)nc(N3C(c4cc(OC)c(OC)c(OC)c4)=NNC(=O)c4ccccc43)c2cc1OC	> 100 µM (inactive)	29 µM (inactive)		> 100 µM (inactive)	13.5 µM	23.3 µM (inactive)	18.5 µM (inactive)	46.3 µM (inactive)	> 100 µM (inactive)	4.82 µM (inactive)	3.4 µM (inactive)	13.9 µM (inactive)	29.6 µM (inactive)	17.9 µM (inactive)	34.9 µM (inactive)	39 µM (inactive)	35.3 µM (inactive)	17.4 µM (inactive)	54.7 µM (inactive)	18.7 µM (inactive)
CC(C)(CO)CNc1nc(N)nc(Cl)c1N	> 100 µM (inactive)	> 100 µM (inactive)	> 100 µM (inactive)	> 100 µM (inactive)	> 100 µM	> 100 µM (inactive)	> 100 µM (inactive)	> 100 µM (inactive)	> 100 µM (inactive)	> 100 µM (inactive)	> 100 µM (inactive)	> 100 µM (inactive)	> 100 µM (inactive)	> 100 µM (inactive)	95.1 µM (inactive)	58.5 µM (inactive)	42.9 µM (inactive)	> 100 µM (inactive)		> 100 µM (inactive)
CC(C)(CC#N)c1cc(CC(C)(C)c2cc(CC(C)(C)c3cc(C(C)(C)C4(C)OCCO4)no3)no2)no1	> 100 µM (inactive)	50.4 µM (inactive)	> 100 µM (inactive)	51.4 µM (inactive)	94.2 µM	> 100 µM (inactive)	> 100 µM (inactive)	19.1 µM (inactive)	> 100 µM (inactive)		47.2 µM (inactive)	23.5 µM (inactive)	39.7 µM (inactive)	31 µM (inactive)	75.7 µM (inactive)	9.08 µM (inactive)	67.6 µM (inactive)	41.9 µM (inactive)		91 µM (inactive)
CCOC(=O)C1C(O)CC2c3ccccc3-c3ccccc3C21 (stereo not given)	> 100 µM (inactive)	> 100 µM (inactive)		19.8 µM (inactive)	> 100 µM	68.1 µM (inactive)	36.1 µM (inactive)	49.5 µM (inactive)	> 100 µM (inactive)	> 100 µM (inactive)	40.5 µM (inactive)	> 100 µM (inactive)	> 100 µM (inactive)	43.7 µM (inactive)	50.5 µM (inactive)	> 100 µM (inactive)	> 100 µM (inactive)	44.4 µM (inactive)	> 100 µM (inactive)	> 100 µM (inactive)
NC(=O)NNc1nc(-c2ccccc2)cs1	> 100 µM (inactive)	> 100 µM (inactive)	> 100 µM (inactive)	> 100 µM (inactive)	> 100 µM	> 100 µM (inactive)	> 100 µM (inactive)	> 100 µM (inactive)	> 100 µM (inactive)	> 100 µM (inactive)	> 100 µM (inactive)	> 100 µM (inactive)	> 100 µM (inactive)	> 100 µM (inactive)	> 100 µM (inactive)	> 100 µM (inactive)	> 100 µM (inactive)	> 100 µM (inactive)		> 100 µM (inactive)
O=c1[nH]c(Cc2ccccc2)nc2c1sc1nc3ccccc3n12	> 100 µM (inactive)	> 100 µM (inactive)	> 100 µM (inactive)	> 100 µM (inactive)	> 100 µM	> 100 µM (inactive)	> 100 µM (inactive)	> 100 µM (inactive)	> 100 µM (inactive)	> 100 µM (inactive)	> 100 µM (inactive)		> 100 µM (inactive)	> 100 µM (inactive)	> 100 µM (inactive)	60.5 µM (inactive)	> 100 µM (inactive)	> 100 µM (inactive)	> 100 µM (inactive)	
S=c1[nH]c(Cl)cc2nc(Cl)cn12	2.83 µM (inactive)	5.01 µM (inactive)	8.79 µM (inactive)	3.82 µM (inactive)	4.68 µM	4.66 µM (inactive)	4.14 µM (inactive)	3.13 µM (inactive)		13.6 µM (inactive)	2.54 µM (inactive)	6.14 µM (inactive)	3.94 µM (inactive)	2.88 µM (inactive)	2.95 µM (inactive)	23.4 µM (inactive)	> 100 µM (inactive)	6.93 µM (inactive)		2.65 µM (inactive)
CCOC(=O)c1c2c(n(C)c1-c1ccccc1)C(=O)C(C)=CC2=O	1.57 µM (inactive)	17.5 µM (inactive)		3.6 µM (inactive)	3.36 µM	5.79 µM (inactive)	6.04 µM (inactive)	2.37 µM (inactive)	2.55 µM (inactive)	20.8 µM (inactive)	7.83 µM (inactive)	7.05 µM (inactive)	11.4 µM (inactive)	19 µM (inactive)	9.62 µM (inactive)	3.13 µM (inactive)	2.61 µM (inactive)	10.9 µM (inactive)	2.94 µM (inactive)	9.04 µM (inactive)
CCCCc1c(N(C)C)c(OC(C)=O)c(-c2cn(C)c3ccccc23)oc1=O	19.1 µM (inactive)	54.6 µM (inactive)		17.3 µM (inactive)	19.4 µM	15.5 µM (inactive)	14.2 µM (inactive)	13.1 µM (inactive)	47.9 µM (inactive)	27 µM (inactive)	20.3 µM (inactive)	33.7 µM (inactive)	18.6 µM (inactive)	25.5 µM (inactive)	13.8 µM (inactive)	29.6 µM (inactive)	22.5 µM (inactive)	14.1 µM (inactive)	17.7 µM (inactive)	24.8 µM (inactive)
